From PubChem BioAssay AID248 (DTP/NCI, 2004)
Where “and” joins values, the source holds several entries; their conditions need not be identical. Equal entries are not always repeated. Inconclusive results and toxic doses are left out. Cut-off read from the data, not from the text of the source: active = T/C of 150% or more; inactive = T/C below 125%.

System: L1210 leukemia ip in BDF1 mice, survival T/C
Assay: NCI In Vivo Anticancer Drug Screen. Data for tumor model L1210 Leukemia (intraperitoneal) in B6D2F1 (BDF1) mice
Conditions: endpoint: mean survival time, higher = longer survival
Method in brief: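 Each compound was tested against a transplantable tumor grown in mice. The endpoint was survival, with treated animals benchmarked against vehicle controls as a simple ratio.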

[1] = dose: 100.0 mg/kg/injection, schedule: Q01DX009 (ip), vehicle: saline with Tween-80
[2] = dose: 200.0 mg/kg/injection, schedule: Q01DX009 (ip), vehicle: saline with Tween-80
[3] = dose: 100.0 mg/kg/injection, schedule: Q04DX002 (ip), vehicle: saline with Tween-80
[4] = dose: 100.0 mg/kg/injection, schedule: Q01DX001 (ip), vehicle: saline
[5] = dose: 200.0 mg/kg/injection, schedule: Q01DX001 (ip), vehicle: saline
[6] = dose: 400.0 mg/kg/injection, schedule: Q01DX001 (ip), vehicle: saline

Measured: T/C

CC(Oc1ccccc1)C(=O)NC(=S)Nc1cc(Cl)ccc1Cl (centres undefined)
inactive: dose: 100.0 mg/kg/injection, schedule: Q01DX001 (ip), vehicle: other 93 % of control | dose: 100.0 mg/kg/injection, schedule: Q01DX009 (ip), vehicle: other 94 % of control and 89 % of control | dose: 100.0 mg/kg/injection, schedule: Q04DX002 (ip), vehicle: other 119 % of control and 90 % of control | dose: 200.0 mg/kg/injection, schedule: Q01DX001 (ip), vehicle: other 88 % of control | dose: 200.0 mg/kg/injection, schedule: Q01DX009 (ip), vehicle: other 96 % of control and 89 % of control | dose: 200.0 mg/kg/injection, schedule: Q04DX002 (ip), vehicle: other 94 % of control and 102 % of control | dose: 400.0 mg/kg/injection, schedule: Q01DX009 (ip), vehicle: other 88 % of control | dose: 400.0 mg/kg/injection, schedule: Q04DX002 (ip), vehicle: other 102 % of control

C=C1CC23CC[C@H]4[C@@](C)(CCC[C@@]4(C)C(=O)OC4OC(CO)C(O)C(O)C4O)[C@@H]2CC[C@@]1(OC1OC(CO)C(O)C(O)C1OC1OC(CO)C(O)C(O)C1O)C3 (some centres undefined)
inactive: dose: 100.0 mg/kg/injection, schedule: Q01DX001 (ip), vehicle: saline with Tween-80 101 % of control | dose: 200.0 mg/kg/injection, schedule: Q01DX001 (ip), vehicle: saline with Tween-80 93 % of control | dose: 400.0 mg/kg/injection, schedule: Q01DX001 (ip), vehicle: saline with Tween-80 96 % of control

CCOC(=O)C(=O)Nc1onc(C)c1NC(=O)C(=O)OCC
inactive: [1] 89 % of control | [2] 89 % of control | dose: 400.0 mg/kg/injection, schedule: Q01DX009 (ip), vehicle: saline with Tween-80 92 % of control

CCOc1cc(OCC)c(OCC)cc1C=C(C#N)C#N
inactive: dose: 100.0 mg/kg/injection, schedule: Q01DX009 (ip), vehicle: Klucel (hydroxypropylcellulose) (HPC) 91 % of control | dose: 400.0 mg/kg/injection, schedule: Q01DX009 (ip), vehicle: Klucel (hydroxypropylcellulose) (HPC) 88 % of control

CCOc1nc(N)nc(-c2ccc(OC)cc2)c1Br
inactive: [3] 94 % of control | dose: 200.0 mg/kg/injection, schedule: Q04DX002 (ip), vehicle: saline with Tween-80 102 % of control | dose: 400.0 mg/kg/injection, schedule: Q04DX002 (ip), vehicle: saline with Tween-80 97 % of control

CC[C@@]1(O)C[C@H](OC2CC(N(C)C)C(OC3CC(O)C(OC4CCC(=O)C(C)O4)C(C)O3)C(C)O2)c2c(cc3c(c2O)C(=O)c2c(O)ccc(O)c2C3=O)[C@H]1C(=O)OC (some centres undefined)
inactive: dose: 0.5 mg/kg/injection, schedule: Q01DX003 (ip), vehicle: saline 111 % of control | dose: 0.59 mg/kg/injection, schedule: Q01DX001 (ip), vehicle: saline 107 % of control | dose: 0.59 mg/kg/injection, schedule: Q01DX009 (ip), vehicle: saline 111 % of control | dose: 0.59 mg/kg/injection, schedule: Q04DX003 (ip), vehicle: saline 109 % of control | dose: 0.65 mg/kg/injection, schedule: Q01DX009 (ip), vehicle: water 122 % of control | dose: 0.75 mg/kg/injection, schedule: Q01DX009 (ip), vehicle: saline 121 % of control | dose: 0.89 mg/kg/injection, schedule: Q01DX001 (ip), vehicle: saline 107 % of control | dose: 0.89 mg/kg/injection, schedule: Q01DX009 (ip), vehicle: saline 113 % of control | dose: 0.89 mg/kg/injection, schedule: Q04DX003 (ip), vehicle: saline 105 % of control | dose: 1.0 mg/kg/injection, schedule: Q01DX003 (ip), vehicle: saline 113 % of control | dose: 1.0 mg/kg/injection, schedule: Q01DX009 (ip), vehicle: saline 119 % of control | dose: 1.04 mg/kg/injection, schedule: Q04DX003 (ip), vehicle: water 112 % of control | dose: 1.33 mg/kg/injection, schedule: Q01DX001 (ip), vehicle: saline 102 % of control | dose: 1.33 mg/kg/injection, schedule: Q01DX009 (ip), vehicle: saline 120 % of control | dose: 1.33 mg/kg/injection, schedule: Q04DX003 (ip), vehicle: saline 111 % of control | dose: 1.73 mg/kg/injection, schedule: Q04DX003 (ip), vehicle: water 112 % of control | dose: 2.0 mg/kg/injection, schedule: Q01DX001 (ip), vehicle: saline 109 % of control | dose: 2.0 mg/kg/injection, schedule: Q04DX003 (ip), vehicle: saline 107 % of control | dose: 2.59 mg/kg/injection, schedule: Q01DX001 (ip), vehicle: water 112 % of control | dose: 3.0 mg/kg/injection, schedule: Q01DX001 (ip), vehicle: saline 117 % of control | dose: 3.0 mg/kg/injection, schedule: Q01DX009 (ip), vehicle: saline 103 % of control | dose: 3.0 mg/kg/injection, schedule: Q01DX009 (ip), vehicle: water 96 % of control | dose: 12.0 mg/kg/injection, schedule: Q01DX001 (ip), vehicle: water 113 % of control | dose: 20.0 mg/kg/injection, schedule: Q01DX001 (ip), vehicle: water 98 % of control

Cc1cc2oc(/C=C/C(=O)c3ccc([N+](=O)[O-])cc3)c(C)c2cc1C
inactive: dose: 100.0 mg/kg/injection, schedule: Q04DX003 (ip), vehicle: Klucel (hydroxypropylcellulose) (HPC) 97 % of control | dose: 200.0 mg/kg/injection, schedule: Q04DX003 (ip), vehicle: Klucel (hydroxypropylcellulose) (HPC) 90 % of control | dose: 400.0 mg/kg/injection, schedule: Q04DX003 (ip), vehicle: Klucel (hydroxypropylcellulose) (HPC) 100 % of control

O=C(Nc1ccc(O)cc1)Nc1cccc(C(F)(F)F)c1
inactive: dose: 100.0 mg/kg/injection, schedule: Q01DX009 (ip), vehicle: gum acacia 103 % of control | dose: 200.0 mg/kg/injection, schedule: Q01DX009 (ip), vehicle: gum acacia 106 % of control | dose: 400.0 mg/kg/injection, schedule: Q01DX009 (ip), vehicle: gum acacia 100 % of control

CC12CCC3c4ccc(OCC5CO5)cc4CCC3C1CCC2=O (centres undefined)
inactive: dose: 50.0 mg/kg/injection, schedule: Q01DX009 (ip), vehicle: saline with Tween-80 97 % of control | [1] 97 % of control | [2] 94 % of control

Oc1ccccc1C=NCCN1CC1.Oc1ccccc1C=NCCN1CC1.[Ni+2]
inactive: dose: 12.5 mg/kg/injection, schedule: Q01DX009 (ip), vehicle: saline with Tween-80 88 % of control | dose: 25.0 mg/kg/injection, schedule: Q01DX009 (ip), vehicle: saline with Tween-80 96 % of control | dose: 100.0 mg/kg/injection, schedule: Q04DX003 (ip), vehicle: saline 98 % of control

O=c1c(O)c(-c2ccc(Cl)cc2)oc2ccccc12
inactive: dose: 50.0 mg/kg/injection, schedule: Q01DX001 (ip), vehicle: saline 87 % of control | [4] 93 % of control | [5] 93 % of control | [6] 98 % of control

O=C(O)c1ccccc1N1C(=O)c2ccccc2C1=O
inactive: [4] 91 % of control | [5] 96 % of control | [6] 94 % of control

Cc1onc(-c2ccccc2Cl)c1C(=O)NC(=S)NC1CC(C)CC(C)(C)C1 (centres undefined)
inactive: dose: 25.0 mg/kg/injection, schedule: Q04DX002 (ip), vehicle: saline with Tween-80 97 % of control | dose: 50.0 mg/kg/injection, schedule: Q04DX002 (ip), vehicle: saline with Tween-80 90 % of control | [3] 90 % of control

N#Cc1nc[nH]c1C(N)=O
inactive: [4] 94 % of control | [5] 94 % of control | [6] 96 % of control

c1ccc2c(c1)N=C1CCCC3CCCC123 (centres undefined)
inactive: dose: 100.0 mg/kg/injection, schedule: Q## X003 (ip), vehicle: saline 98 % of control | dose: 200.0 mg/kg/injection, schedule: Q## X003 (ip), vehicle: saline 104 % of control | dose: 400.0 mg/kg/injection, schedule: Q## X003 (ip), vehicle: saline 96 % of control

[N-]=[N+]=Nc1cnn(-c2ccccc2)c(=O)c1Cl
inactive: dose: 18.75 mg/kg/injection, schedule: Q01DX009 (ip), vehicle: saline with Tween-80 105 % of control | dose: 37.5 mg/kg/injection, schedule: Q01DX009 (ip), vehicle: saline with Tween-80 92 % of control | dose: 75.0 mg/kg/injection, schedule: Q01DX009 (ip), vehicle: saline with Tween-80 101 % of control
